“Also recorded” adds a separate entry of the source.
Test system: not given
Assay: not given
Conditions: topical, but not oral, application; cited from earlier work

Structure (SMILES) | stimulation of hair growth
C=CC[C@@H]1/C=C(\C)C[C@H](C)C[C@H](OC)[C@H]2O[C@@](O)(C(=O)C(=O)N3CCCC[C@H]3C(=O)O[C@H](/C(C)=C/[C@@H]3CC[C@@H](O)[C@H](OC)C3)[C@H](C)[C@@H](O)CC1=O)[C@H](C)C[C@@H]2OC [FK506] | stimulates hair growth in a dose-dependent manner

Target: FKBP12 (Homo sapiens, UniProt P62942)
Assay: Ki test procedure: inhibition of peptidyl-prolyl isomerase (rotamase) activity, chymotrypsin-coupled assay
Format: biochemical
Conditions: apparent Ki, FKBP rotamase inhibition
Description: The inhibition of the prolyl peptidyl cis-trans isomerase activity of FKBP may be measured as an indicator of this affinity.
Inhibition of the peptidyl-prolyl isomerase (rotamase) activity of the compounds used in the inventive methods and pharmaceutical compositions can be evaluated by known methods described in the literature (Harding et al., Nature, 1989, 341:758-760; Holt et al. J. Am. Chem. Soc., 115:9923-9938). These values are obtained as apparent Ki's and are presented for representative compounds in TABLE I.
The cis-trans isomerization of an alanine-proline bond in a model substrate, N-succinyl-Ala-Ala-Pro-Phe-p-nitroanilide, is monitored spectrophotometrically in a chymotrypsin-coupled assay, which releases para-nitroanilide from the trans form of the substrate. The inhibition of this reaction caused by the addition of different concentrations of inhibitor is determined, and the data is analyzed as a change in first-order rate constant as a function of inhibitor concentration to yield the apparent Ki values.
In a plastic cuvette are added 950 Ml of ice cold assay buffer (25 mM HEPES, pH 7.8, 100 mM NaCl), […] of FKBP (2.5 mM in 10 mM Tris-Cl pH 7.5, 100 mM NaCl, 1 mM dithiothreitol), […] of chymotrypsin (50 mg/ml in 1 mM HCl) and […] of test compound at various concentrations in dimethyl sulfoxide. The reaction is initiated by the addition of 5 mL of substrate (succinyl-Ala-Phe-Pro-Phe-para-nitroanilide, 5 mg/mL in 2.35 mM LiCl in trifluoroethanol).
The absorbance at 390 nm versus time is monitored for 90 seconds using a spectrophotometer and the rate constants are determined from the absorbance versus time data files.

Sequence of FKBP12 (P62942 whole entry, species assumed): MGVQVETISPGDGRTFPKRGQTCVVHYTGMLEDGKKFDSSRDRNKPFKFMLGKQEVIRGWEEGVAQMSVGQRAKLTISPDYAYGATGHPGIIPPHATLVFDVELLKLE

Structure (SMILES) | Ki [nM]
COc1ccc(CCCSC(=O)C2CCCN2S(=O)(=O)c2ccccc2)cc1 [Compound 4, 3-(para-Methoxyphenyl)-1-propylmercaptyl(2S)-N-(benzenesulfonyl)pyrrolidine-2-carboxylate] | 51 to 200
O=C(SC(CCCc1ccccc1)CCCc1ccccc1)C1CCCCN1S(=O)(=O)Cc1ccccc1 (stereo not shown) [Compound 16] | 51 to 200
O=C(SCCCCc1ccccc1)C1CCCCN1S(=O)(=O)C1CCCCC1 (stereo not shown) [Compound 14] | 1 to 50
O=C(SCCc1ccccc1)C1CCCN1S(=O)(=O)c1ccccc1 (stereo not shown) [Compound 1] | 1 to 50
O=C(SCCCCc1ccccc1)C1CCCCN1S(=O)(=O)c1ccccc1 (stereo not shown) [Compound 10] | 1 to 50
COc1cc(S(=O)(=O)N2CCCCC2C(=O)SCCCCc2ccccc2)cc(OC)c1OC (stereo not shown) [Compound 13] | 1 to 50
Cc1ccc(S(=O)(=O)N2CCCC2C(=O)SCCC(c2ccccc2)c2ccccc2)cc1 (stereo not shown) [Compound 9] | 1 to 50
O=C(SCCc1ccccc1)C1CCCN1S(=O)(=O)Cc1ccccc1 (stereo not shown) [Compound 2] | 51 to 200
Cc1ccc(S(=O)(=O)N2CCCC2C(=O)SCCc2ccccc2)cc1 (stereo not shown) [Compound 3] | 51 to 200
O=C(SC(CCCc1ccccc1)CCCc1ccccc1)C1CCCCN1S(=O)(=O)c1ccccc1 (stereo not shown) [Compound 15] | 1 to 50
O=C(SCCCCc1ccccc1)C1CCCCN1S(=O)(=O)Cc1ccccc1 (stereo not shown) [Compound 11] | 51 to 200
COc1ccc(CCCSC(=O)C2CCCN2S(=O)(=O)c2ccc(C)cc2)cc1 (stereo not shown) [Compound 6] | 201 to 500
Cc1ccc(S(=O)(=O)N2CCCCC2C(=O)SCCCCc2ccccc2)cc1 (stereo not shown) [Compound 12] | 1 to 50
COc1ccc(CCCSC(=O)C2CCCN2S(=O)(=O)Cc2ccccc2)cc1 [Compound 5, 3-(para-Methoxyphenyl)-1-propylmercaptyl (2S)-N-(α-toluenesulfonyl)pyrrolidine-2-carboxylate] | 51 to 200
O=C(SCCC(c1ccccc1)c1ccccc1)C1CCCN1S(=O)(=O)c1ccccc1 (stereo not shown) [Compound 7] | 51 to 200
O=C(SCCC(c1ccccc1)c1ccccc1)C1CCCN1S(=O)(=O)Cc1ccccc1 (stereo not shown) [Compound 8] | 1 to 50

Test system: C57 black 6 mice
Assay: In vivo hair generation test, Experiment B (shaved C57 Black 6 mice, topical, relative hair growth index)
Conditions: one micromole per milliliter topical, three times per week, 14 days after initiation of treatment
Protocol: Care was taken not to nick or cause abrasion to the underlying dermal layers. The animals were in anagen growth phase when shaved. […] The animals were treated three times per week, and hair growth was evaluated 14 days after initiation of treatment.

Structure (SMILES) | hair growth (relative hair growth index, FIG. 5)
O=C(SCCCc1ccccc1)[C@@H]1CCCN1S(=O)(=O)Cc1ccccc1 [GPI 1312] | dramatic hair growth

Test system: C57 black 6 mice
Assay: In vivo hair generation test, Experiment A (shaved C57 black 6 mice, topical)
Conditions: 30 μM topical in 20% propylene glycol, 3 applications over 5 days, after six weeks
Description: Care was taken not to nick or cause abrasion to the underlaying dermal layers. The animals were in anagen growth phase, as indicated by the pinkish color of the skin. […] Hair growth was quantitated by the percent of shaved area covered by new hair growth during this time period.

Structure (SMILES) | hair regrowth in shaved area
CCC(C)(C)C(=O)C(=O)N1CCC[C@H]1C(=O)OCCCc1cccnc1 [GPI 1046, 3-(3-pyridyl)-1-propyl (2s)-1-(3,3-dimethyl-1,2-dioxopentyl)-2-pyrrolidinecarboxylate] | essentially complete hair regrowth; also recorded: essentially, complete hair regrowth
